Counter-ions that a name gives are not always drawn. Like-named read-outs stand apart in the source and are kept apart here. Marks after values point to notes of the source that are not given here.
Tests used:
[1] = tested on: adrenal arrhythmia in mice; type: in vivo
[2] = tested on: aconitic arrhythmia in mice; assay: animal or person; type: in vivo
Protocol: Arrhythmia was reproduced according to the method of Ju. I. Vikhlyayev and N. V. Kaverina (1958) [Kaverina N. V., Berdyaev S. Ju., Kuschuk E. P., Paskhina O. E. Methodical indications in respect to a study of the anti-arrhythmic activity of new pharmacological substances. Manual on experimental (pre-clinical) study of new pharmacological substances. Edited by V. P. Fisenko.—Moscow. 2000. Page 210]. Aconitine nitrate was administered to the animals in a dose of 50 μg/kg intravenously.
(§1) This model makes it possible to assess the scope of the therapeutic action of the presented compounds and the N-succinyl-D,L-tryptophane dipotassium salt. Assessment of the scope of the therapeutic action was carried out in accordance with the value of the anti-arrhythmic index (AAI), determined as the ratio LD50 upon the oral method of administering to ED50 on an aconitic model of arrhythmia.

[3] = tested on: occlusive arrhythmia in cats; assay: Early occlusive arrhythmia in cats (coronary artery ligation); details: for effect on experimental lethality: 23% lethality in the control; for anti-arrhythmic effect: dose of 0.05 mg/kg, intravenous
[4] = LD50 upon oral administration in mice; details: mouse, in vivo, per/os
Protocol: as §1

[5] = mice, dose 0.05 mg/kg, introduced internally
[6] = mice, dose 0.5 mg/kg, introduced internally
[7] = mice, 0.05 and 0.5 mg/kg, introduced internally

Structure (SMILES)	Animals lethal (%) [1, 5]	Animals with AV blockage (%) [1, 5]	Animals with ventricular arrhythmia (%) [1, 5]	Lifetime [1, 5] [min]	Number of animals in groups lethal [1, 5]	Number of animals in groups with AV blockage [1, 5]	Number of animals in groups with ventricular arrhythmia [1, 5]	Animals lethal (%) [1, 6]	Animals with AV blockage (%) [1, 6]	Animals with ventricular arrhythmia (%) [1, 6]	Lifetime [1, 6] [min]	Number of animals in groups lethal [1, 6]	Number of animals in groups with AV blockage [1, 6]	Number of animals in groups with ventricular arrhythmia [1, 6]	Animals died in group ([3]; dose 0.05 mg/kg, intravenously)	Animals with ventricular arrhythmia (%) ([3]; dose 0.05 mg/kg, intravenously)	Number of animals with ventricular arrhythmia ([3]; dose 0.05 mg/kg, intravenously)	Time of occurrence of arrhythmia ([3]; dose 0.05 mg/kg, intravenously) [min]	Animals died in group ([3]; dose 0.5 mg/kg, intravenously)	Animals with ventricular arrhythmia (%) ([3]; dose 0.5 mg/kg, intravenously)	also measured
O=C([O-])CCC(=O)NC(Cc1c[nH]c2ccccc12)C(=O)[O-].[K+].[K+] (racemic) [N-succinyl-D,L-tryptophane dipotassium salt, reference compound]	(100%)	(43%)	(43%)	16 ± 4	14	6*	6*	(100%)	(57%)	(43%)	16 ± 4	14	8	6*	0	50	3	19 ± 3	0	17	animals died after administration of the substance ([2]; per/os, dose of 50 mg/kg, mice): 50%; test animals in which arrhythmia develops ([2]; per/os, interval of doses 0.05-5 mg/kg, mice): 71-100%; effect on experimental lethality [3]: prevented experimental lethality; Number of animals with ventricular arrhythmia ([3]; dose 0.5 mg/kg, intravenously): 1; Time of occurrence of arrhythmia ([3]; dose 0.5 mg/kg, intravenously): 21 min; anti-arrhythmic effect [3]: did not demonstrate a reliable anti-arrhythmic effect
O=C(O)CCCC(=O)N[C@@H](Cc1c[nH]c2ccccc12)C(=O)O [Compound II mono-sodium salt, mono-sodium salt N^α-glutaryl-L-tryptophane]	(50%)	(0%)	(0%)	22 ± 3.4	7*	0*	0*	(50%)	(36%)	(0%)	19 ± 2.8	7*	5*	0*	–	–	–	–	–	–	effect on lethality of the test animals [1, 7]: statistically reliably reduced the lethality; effect on ventricular ectopic complexes ([1]; mice, introduced internally): elimination of the ventricular ectopic complexes in all of the test animals
O=C(O)CCCC(=O)N[C@@H](Cc1c[nH]c2ccccc12)C(=O)O [Compound II, N^α-glutaryl-L-tryptophane]	(50%)	(0%)	(0%)	22 ± 3.4	7*	0*	0*	(50%)	(29%)	(0%)	19 ± 2.8	7*	4*	0*	1	86	6	17 ± 2	0	29	Animals died in group (%) ([3]; dose 0.05 mg/kg, intravenously): 14%; Number of animals with ventricular arrhythmia ([3]; dose 0.5 mg/kg, intravenously): 2; Time of occurrence of arrhythmia ([3]; dose 0.5 mg/kg, intravenously): 17 to 20 min
O=C(O)CCCC(=O)N[C@@H](Cc1c[nH]cn1)C(=O)O [Compound III, N^α-glutaryl-L-histidine]	(86%)	(29%)	(43%)	32 ± 7	12	4*	6*	(79%)	(21%)	(29%)	33 ± 5	11	3*	4*	0	25	2	18 ± 2	0	17	effect on life span of the test animals [1, 7]: effectively increased the life span; ED50 ([2]; Mus musculus, iv): 0.185 ± 0.083 mg/kg; prevention of atrioventricular heart arrhythmia caused by aconitine nitrate ([2]; mice, administration internally): effectively prevents atrioventricular heart arrhythmia; LD50 [4]: 4500 mg/kg; effect on experimental lethality [3]: prevented experimental lethality; Number of animals with ventricular arrhythmia ([3]; dose 0.5 mg/kg, intravenously): 1; Time of occurrence of arrhythmia ([3]; dose 0.5 mg/kg, intravenously): 18 min; anti-arrhythmic effect [3]: had reliable activity
O=C(O)CCCC(=O)NCCc1c[nH]cn1 [Compound IV, glutaryl histamine]	(79%)	(21%)	(29%)	24 ± 3	11	3*	4*	(100%)	(29%)	(14%)	18 ± 0.8	14	4*	2*	–	–	–	–	–	–	effect on life span of the test animals ([1]; mouse, in vivo, 0.05 mg/kg): effectively increased the life span
O=C(O)CCCC(=O)NCCc1ccncc1 [Compound IX]	(80%)	(100%)	(70%)	21 ± 6	8	10	7	(60%)	(50%)	(20%)	32 ± 4	6*	5	2*	–	–	–	–	–	–	–
O=C(O)CCCC(=O)NCCc1c[nH]c2ccccc12 [Compound XIII mono-sodium salt]	(43%)	(43%)	(36%)	17 ± 4	6*	6*	5*	(36%)	(29%)	(21%)	28 ± 9	5*	4*	3*	–	–	–	–	–	–	–
O=C(O)CCCC(=O)NCCc1ccccn1 [Compound X]	(70%)	(70%)	(60%)	13 ± 4	7*	7	6*	(70%)	(60%)	(30%)	27 ± 6	7*	6	3*	–	–	–	–	–	–	–
CCCCc1oc2ccccc2c1C(=O)c1cc(I)c(OCCN(CC)CC)c(I)c1 [Cordaron, amiodaron, reference compound]	–	–	–	–	–	–	–	–	–	–	–	–	–	–	–	–	–	–	–	–	Animals died in group ([3]; dose 1.0 mg/kg, intravenously): 0; Animals with ventricular arrhythmia (%) ([3]; dose 1.0 mg/kg, intravenously): 40%; Number of animals with ventricular arrhythmia ([3]; dose 1.0 mg/kg, intravenously): 4; Time of occurrence of arrhythmia ([3]; dose 1.0 mg/kg, intravenously): 21 ± 6 min
CC(C)NCC(O)COc1cccc2ccccc12 (stereo not drawn) [Propranolol, propranolol, reference compound]	–	–	–	–	–	–	–	–	–	–	–	–	–	–	–	–	–	–	–	–	Animals with AV blockage (%) ([1]; mouse, in vivo, 0.1 mg/kg): (36%); Animals with ventricular arrhythmia (%) ([1]; mouse, in vivo, 0.1 mg/kg): (29%); Lifetime ([1]; mouse, in vivo, 0.1 mg/kg): 20 ± 4 min; Number of animals in groups with AV blockage ([1]; mouse, in vivo, 0.1 mg/kg): 5*; Number of animals in groups with ventricular arrhythmia ([1]; mouse, in vivo, 0.1 mg/kg): 4*; Animals with AV blockage (%) ([1]; mouse, in vivo, 0.5 mg/kg): (29%); Animals with ventricular arrhythmia (%) ([1]; mouse, in vivo, 0.5 mg/kg): (50%); Lifetime ([1]; mouse, in vivo, 0.5 mg/kg): 23 ± 4 min; Number of animals in groups with AV blockage ([1]; mouse, in vivo, 0.5 mg/kg): 4*; Number of animals in groups with ventricular arrhythmia ([1]; mouse, in vivo, 0.5 mg/kg): 7*; Animals died in group ([3]; dose 1.0 mg/kg, intravenously): 0; Animals with ventricular arrhythmia (%) ([3]; dose 1.0 mg/kg, intravenously): 28%; Number of animals with ventricular arrhythmia ([3]; dose 1.0 mg/kg, intravenously): 2; Time of occurrence of arrhythmia ([3]; dose 1.0 mg/kg, intravenously): 24 ± 1 min
